Experimental data as given in US20220050096A1, “ANALYTE-SENSITIVE PROBES AND CONTACT LENS FOR DIAGNOSIS OF OCULAR PATHOLOGIES” (University Of Maryland, Baltimore, priority 2020, published 2022).

Assay: Sodium-dependent intensity decays of SG in 20 mM MOPS buffer, 8 mM KCl
Assay type: physicochemical
Set-up: key to α1 / α2 / α3 / f1 / f2 / f3: fractional amplitudes (α) and intensity fractions (f); Σαi=1.0, Σfi=1.0
Description: Fluorescence Spectroscopic Measurements. Fluorescence intensities and intensity decays were measured using a Varian™ Eclipse 4 spectrofluorometer and a FluoTime300 instrument from PicoQuant™ (Berlin, Germany) and analyzed with the EasyTau™ software. The excitation source was a 473 nm laser diode with a repetition rate of 40 MHZ and a pulse width less than 100 ps. In other embodiments, the excitation source for SG-PL was at 495 nm from a Solea™ supercontinuum laser (PicoQuant™, Germany) and a 375 nm laser diode (PDL 375, PicoQuant™), a repetition rate of 40 MHz, and a pulse width less than 100 ps. Some intensity and lifetime measurements for SG-PL (as indicated) were performed using Alba V confocal fluorescence lifetime microscopy, FLIM (ISS, Urbana, Ill.), with excitation source of a 473 nm laser diode with a repetition rate of 40 MHz and a pulse width near 250 ps.
Intensity decays were measured at the emission maximum with the band of 10 to 20 nm, analyzed in terms of the multi-exponential model:
I(t)=Σαi exp(−t/ti) (equation 1)
where ti are the individual decay times and αi the initial time-zero amplitudes. The mean decay time can be represented in two ways. The average lifetime is given by:
where Σαi=1.0 and Σfi=1.0. The term fi=αi τi is proportional to the fractional contribution of each component to the total intensity decay. The term τi/Σαi τi is the fractional contribution to the steady state emission. Here, we use the amplitude-weighted lifetime given by
which is appropriate when the emission is from a single fluorophore with a changing quantum yield. For a single exponential decay, the lifetime is given by τ=1.0/(knr+Γ) and the quantum yield is given by Q=Γ/(knr+Γ) where knr is the sum of all non-radiative decay rates and Γ is the radiative decay rate. The value of Γ is determined by the molecular extinction coefficient that remains constant under most conditions. For a single type of fluorophore with a constant value of Γ the normalized αi values represent the molecular fraction of each decay time component. The value of αi and τi were determined by non-linear least squares fitting using PicoQuant™ software.
Three decay time components were required for the intensity decays. Fluorescence anisotropy decays were determined by individual measurements of the polarized intensity decays with corrections for the G-factor. Resolution of multi-exponential decays is not necessary. The average lifetime can be used as a single measurement. […]

[1] = NaCl 0 mM, 20 mM MOPS buffer 8 mM KCl
[2] = NaCl 5 mM, 20 mM MOPS buffer 8 mM KCl
[3] = NaCl 10 mM, 20 mM MOPS buffer 8 mM KCl
[4] = NaCl 20 mM, 20 mM MOPS buffer 8 mM KCl

COc1cc(N2CCOCCOCCN(c3cc(OC)c(NC(=O)c4ccc(-c5c6cc(Cl)c(=O)cc-6oc6cc([O-])c(Cl)cc56)c(C(=O)[O-])c4)cc3OC)CCOCC2)c(OC)cc1NC(=O)c1ccc(-c2c3cc(Cl)c(=O)cc-3oc3cc([O-])c(Cl)cc23)c(C(=O)[O-])c1.C[N+](C)(C)C.C[N+](C)(C)C.C[N+](C)(C)C.C[N+](C)(C)C [SG]
f1 (NaCl 0 mM, MOPS buffer): 0.272
f2 (NaCl 0 mM, MOPS buffer): 0.174
f3 (NaCl 0 mM, MOPS buffer): 0.554
α1 (NaCl 0 mM, MOPS buffer): 0.703
α2 (NaCl 0 mM, MOPS buffer): 0.155
α3 (NaCl 0 mM, MOPS buffer): 0.142
τ1 (NaCl 0 mM, MOPS buffer): 0.36 ns
τ2 (NaCl 0 mM, MOPS buffer): 1.03 ns
τ3 (NaCl 0 mM, MOPS buffer): 3.59 ns
τf (NaCl 0 mM, MOPS buffer): 2.27 ns
τα (NaCl 0 mM, MOPS buffer): 0.92 ns
f1 [1]: 0.272
f2 [1]: 0.174
f3 [1]: 0.554
α1 [1]: 0.703
α2 [1]: 0.155
α3 [1]: 0.142
τ1 [1]: 0.36 ns
τ2 [1]: 1.03 ns
τ3 [1]: 3.59 ns
τf [1]: 2.27 ns
τα [1]: 0.92 ns
f1 (NaCl 5 mM, MOPS buffer): 0.111
f2 (NaCl 5 mM, MOPS buffer): 0.223
f3 (NaCl 5 mM, MOPS buffer): 0.666
α1 (NaCl 5 mM, MOPS buffer): 0.439
α2 (NaCl 5 mM, MOPS buffer): 0.244
α3 (NaCl 5 mM, MOPS buffer): 0.317
τ1 (NaCl 5 mM, MOPS buffer): 0.39 ns
τ2 (NaCl 5 mM, MOPS buffer): 1.44 ns
τ3 (NaCl 5 mM, MOPS buffer): 3.28 ns
τf (NaCl 5 mM, MOPS buffer): 2.55 ns
τα (NaCl 5 mM, MOPS buffer): 1.57 ns
f1 [2]: 0.111
f2 [2]: 0.223
f3 [2]: 0.666
α1 [2]: 0.439
α2 [2]: 0.244
α3 [2]: 0.317
τ1 [2]: 0.39 ns
τ2 [2]: 1.44 ns
τ3 [2]: 3.28 ns
τf [2]: 2.55 ns
τα [2]: 1.57 ns
f1 (NaCl 10 mM, MOPS buffer): 0.078
f2 (NaCl 10 mM, MOPS buffer): 0.224
f3 (NaCl 10 mM, MOPS buffer): 0.699
α1 (NaCl 10 mM, MOPS buffer): 0.341
α2 (NaCl 10 mM, MOPS buffer): 0.276
α3 (NaCl 10 mM, MOPS buffer): 0.383
τ1 (NaCl 10 mM, MOPS buffer): 0.40 ns
τ2 (NaCl 10 mM, MOPS buffer): 1.43 ns
τ3 (NaCl 10 mM, MOPS buffer): 3.22 ns
τf (NaCl 10 mM, MOPS buffer): 2.60 ns
τα (NaCl 10 mM, MOPS buffer): 1.77 ns
f1 [3]: 0.078
f2 [3]: 0.224
f3 [3]: 0.699
α1 [3]: 0.341
α2 [3]: 0.276
α3 [3]: 0.383
τ1 [3]: 0.40 ns
τ2 [3]: 1.43 ns
τ3 [3]: 3.22 ns
τf [3]: 2.60 ns
τα [3]: 1.77 ns
f1 (NaCl 20 mM, MOPS buffer): 0.094
f2 (NaCl 20 mM, MOPS buffer): 0.355
f3 (NaCl 20 mM, MOPS buffer): 0.551
α1 (NaCl 20 mM, MOPS buffer): 0.324
α2 (NaCl 20 mM, MOPS buffer): 0.353
α3 (NaCl 20 mM, MOPS buffer): 0.323
τ1 (NaCl 20 mM, MOPS buffer): 0.57 ns
τ2 (NaCl 20 mM, MOPS buffer): 2.00 ns
τ3 (NaCl 20 mM, MOPS buffer): 3.39 ns
τf (NaCl 20 mM, MOPS buffer): 2.63 ns
τα (NaCl 20 mM, MOPS buffer): 1.99 ns
f1 [4]: 0.094
f2 [4]: 0.355
f3 [4]: 0.551
α1 [4]: 0.324
α2 [4]: 0.353
α3 [4]: 0.323
τ1 [4]: 0.57 ns
τ2 [4]: 2.00 ns
τ3 [4]: 3.39 ns
τf [4]: 2.63 ns
τα [4]: 1.99 ns
f1 (NaCl 30 mM, MOPS buffer): 0.068
f2 (NaCl 30 mM, MOPS buffer): 0.295
f3 (NaCl 30 mM, MOPS buffer): 0.638
α1 (NaCl 30 mM, MOPS buffer): 0.255
α2 (NaCl 30 mM, MOPS buffer): 0.349
α3 (NaCl 30 mM, MOPS buffer): 0.396
τ1 (NaCl 30 mM, MOPS buffer): 0.54 ns
τ2 (NaCl 30 mM, MOPS buffer): 1.72 ns
τ3 (NaCl 30 mM, MOPS buffer): 3.27 ns
τf (NaCl 30 mM, MOPS buffer): 2.63 ns
τα (NaCl 30 mM, MOPS buffer): 2.03 ns
